According to patent US8361998B2, “Compounds and their use as IKACh blockers” (AstraZeneca AB, priority 2010, dated 2013):

Target: T1, human cardiac ion channel proteins hKir3.1/Kir3.4 (Homo sapiens, UniProt P48544+P48549)
T1 construct: expressed in transfected cells
T1 sequence (P48549 1-501): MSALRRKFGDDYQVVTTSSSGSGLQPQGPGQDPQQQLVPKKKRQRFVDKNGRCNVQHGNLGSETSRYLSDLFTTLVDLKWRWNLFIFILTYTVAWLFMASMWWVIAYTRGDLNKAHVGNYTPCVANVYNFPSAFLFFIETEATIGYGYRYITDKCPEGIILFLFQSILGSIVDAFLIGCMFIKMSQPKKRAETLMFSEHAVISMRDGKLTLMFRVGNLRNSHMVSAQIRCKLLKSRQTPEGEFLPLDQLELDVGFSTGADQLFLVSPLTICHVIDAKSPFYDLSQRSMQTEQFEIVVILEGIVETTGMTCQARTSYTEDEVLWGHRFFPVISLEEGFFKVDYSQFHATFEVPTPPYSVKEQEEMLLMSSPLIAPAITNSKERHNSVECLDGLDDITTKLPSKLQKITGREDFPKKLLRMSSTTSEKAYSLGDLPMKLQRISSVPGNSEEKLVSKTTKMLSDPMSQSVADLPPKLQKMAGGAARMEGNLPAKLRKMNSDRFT
T1 sequence (P48544 1-419): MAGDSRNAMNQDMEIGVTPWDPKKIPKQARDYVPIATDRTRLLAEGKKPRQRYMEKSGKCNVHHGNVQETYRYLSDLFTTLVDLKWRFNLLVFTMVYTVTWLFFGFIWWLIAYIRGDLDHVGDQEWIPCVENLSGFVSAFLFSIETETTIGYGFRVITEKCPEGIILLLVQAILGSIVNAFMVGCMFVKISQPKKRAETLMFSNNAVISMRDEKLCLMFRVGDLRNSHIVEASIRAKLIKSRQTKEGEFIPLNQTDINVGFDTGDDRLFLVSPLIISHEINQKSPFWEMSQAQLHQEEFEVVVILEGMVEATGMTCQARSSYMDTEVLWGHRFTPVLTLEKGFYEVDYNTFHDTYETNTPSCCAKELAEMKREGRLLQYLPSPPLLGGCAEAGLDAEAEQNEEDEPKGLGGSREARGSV
Assay: Atomic Absorption Screening (AAS) Rb efflux assay of hKir3.1/Kir3.4 block, carbachol/high K+ stimulated, 10-pt or 7-pt CR
Format: cell-based
Settings: 10-pt CR (0.003 to 67 μmol/L), AAS Rb efflux, CHO-K1 cells expressing hKir3.1/Kir3.4; mean of >4 replicates; read-out: IKACh IC50 10-pt CR, AAS
From the text: Human KCNJ3 encoding Kir3.1 (Genbank acc. No. NM_002239) was inserted between EcoRI and NotI in the pIRESneo3 vector (Clontech Laboratories, Inc. CA, USA). Human KCNJ5 encoding Kir3.4 (Genbank Acc. No. BC069482) was inserted between EcoR1 and Not1 in the pIRESpuro3 vector (Clontech Laboratories, Inc. CA, USA). A Kozak sequence (GCCACC) was introduced before the start codon ATG of both constructs. Chinese Hamster Ovary K1, CHO-FLP/IN, cells (Invitrogen Corporation, Paisley, UK) were transfected simultaneously using Lipofectamine 2000 reagent (Invitrogen Corporation, Paisley, UK). Geneticin 600 μg/mL (Invitrogen Corporation, Paisley, UK) and puromycin 3 μg/mL (BD Bioscience) were added to the cell culture medium 3 days after transfection. Two weeks after transfection, colonies had appeared and were manually picked and sorted to one cell per well in a 96-well plate. Cells were then tested for Kir3.1 and Kir3.4 expression using membrane potential assay, Western Blot and Immunocytochemistry. […] The cell line was re-sorted by flow cytometry and resulting clones were assayed electrophysiologically using IonWorks (Molecular Devices) and later validated on the Q-Patch (Sophion A/S).
The stable cell line was cultured in DMEM/F12 with Glutamax 1 (Invitrogen Corporation, Paisley, UK), supplemented with foetal bovine serum 10%, puromycin 3 μg/mL, hygromycin 300 μg/mL and geneticin 600 μg/mL (Invitrogen Corporation, Paisley, UK). Care was taken not to seed cells at too low density and cells were passaged at approximately 70-80% confluency. Cells used for patch-clamp experiments were prepared by washing using PBS (—Mg, —Ca^2+), 2 times, detached using Accutase (Sigma). For Q-Patch measurements, storage medium was prepared fresh by adding 1.25 mL of 1M Hepes (GibcoBRL) to 50 mL CHO-SFM II medium (GibcoBRL) and detached cells were diluted to 2 million cells/mL in this medium. Frozen (Cryopreserved) cells were used for Atomic Absorption Screening (AAS) and plated poly-D-lysine 384-well plates (Greiner) at a density of 11,000-13,000 cells/well, the day before assay.
The blocking effects of compounds on the human cardiac ion channel proteins hKir3.1/Kir3.4 were assessed in CHO-K1 cells stably expressing the channel proteins using Atomic Absorption Screening (AAS). Cells were washed and then loaded with 25 μL Rb-loading buffer for three hours at 37° C. After that, the cells were washed again and 25 μL of diluted compound was transferred to the cell plate, incubated for 5 min in RT, and then […] of Carbachol/high K+ (10 μM carbachol and 20 mM KCl final concentration) buffer added to stimulate the cells and open the Kir3.1/Kir3.4 channel. After 10 min stimulation, […] of the supernatant was transferred to a new microplate, 45 μL washing buffer added to the supernatant and the level of Rb in the supernatant was then measured using an Aurora ICR 8000. Compounds were studied at concentrations ranging from 0.003 to 67 μmol/L (dilutions by three, 10-pt CR) or from 0.037 to 27 μmol/L (dilutions by three, 7-pt CR).
Stock solutions of compounds were prepared in DMSO 10 mM and stored at RT. Buffers used for AAS contained (in mM): HEPES 20, NaCl 150, MgCl2 1.0, CaCl2 2.0 and NaH2PO4 0.8 and Glucose 10 (wash 1) or KCl 5 and Glucose 5 (wash 2) or KCl 5 (dilution buffer). The High K^+ channel opener buffer contained (in mM): HEPES 20, NaCl 130, MgCl2 1.0, CaCl2 2.0 and NaH2PO4 0.8 together with KCl 20. Solutions used for Q-Patch (extracellular) in mM: NaCl 145, KCl 4, CaCl2 2.0, MgCl2 1.0, HEPES 10 and glucose 10. The high K^+ extra cellular solution used for Q-Patch in mM: NaCl 96.7, KCl 50.7, CaCl2 2.0, MgCl2 1.0, HEPES 10 and glucose 10 while the intra cellular solution used was (in mM): KCl 120, CaCl2 5.374, MgCl2 1.75, EGTA 10, KOH 3.125, HEPES 10, Na2ATP 4.
Results are given as mean IC50 of >4 replicates (10-pt CR, AAS) or >3 replicates (7-pt CR, AAS). Some of the data in Table 1 are mean values of two or more runs. […]

Row | Compound | IC50
1 | CCC[C@@H](CN1C[C@H](O)[C@H]1C)N(C)C(=O)c1ccc(F)cc1 (relative stereo) [Example 43.2, 4-Fluoro-N—((S)-1-((2R*,3S*)-3-hydroxy-2-methylazetidin-1-yl)pentan-2-yl)-N-methylbenzamide] | 9100 nM
2 | CCC[C@@H](CN1C[C@H](O)[C@H]1C)N(C)C(=O)c1ccc(F)c(F)c1 (relative stereo) [Example 43.3, 3,4-Difluoro-N—((S)-1-((2R*,3S*)-3-hydroxy-2-methylazetidin-1-yl)pentan-2-yl)-N-methylbenzamide] | 2700 nM
3 | CN(C(=O)c1ccc(F)c(F)c1)[C@H](CN1CC(O)C1)C1CCCC1 (single isomer, unassigned) [32.1, isomer 1] | 260 nM
4 | CN(C(=O)c1ccc(F)c(F)c1)[C@H](CN1CC(O)C1)C1CCCC1 (single isomer, unassigned) [32.1, isomer 2] | 2300 nM
5 | COc1ccc(C(=O)N(C)C(CN2CC(O)C2)C2CCCC2)cc1 (single isomer, unassigned) [32.2, isomer 1] | 580 nM
6 | COc1ccc(C(=O)N(C)C(CN2CC(O)C2)C2CCCC2)cc1 (single isomer, unassigned) [32.2, isomer 2] | 15000 nM
7 | CN(C(=O)c1ccc(Cl)cc1)C(CN1CC(O)C1)C1CCCC1 (single isomer, unassigned) [32.3, isomer 1] | 55 nM
8 | CN(C(=O)c1ccc(Cl)cc1)C(CN1CC(O)C1)C1CCCC1 (single isomer, unassigned) [32.3, isomer 2] | 300 nM
9 | Cc1cc(C(=O)N(C)C(CN2CC(O)C2)C2CCCC2)ccc1F (single isomer, unassigned) [32.4, isomer 1] | 34 nM
10 | Cc1cc(C(=O)N(C)C(CN2CC(O)C2)C2CCCC2)ccc1F (single isomer, unassigned) [32.4, isomer 2] | 980 nM
11 | CN(C(=O)c1ccc(C#N)cc1)C(CN1CC(O)C1)C1CCCC1 (single isomer, unassigned) [32.5, isomer 1] | 340 nM
12 | CN(C(=O)c1ccc(C#N)cc1)C(CN1CC(O)C1)C1CCCC1 (single isomer, unassigned) [32.5, isomer 2] | 7500 nM
13 | CN(C(=O)c1ccc(F)cc1Cl)C(CN1CC(O)C1)C1CCCC1 (single isomer, unassigned) [32.6, isomer 1] | 1100 nM
14 | CN(C(=O)c1ccc(F)cc1Cl)C(CN1CC(O)C1)C1CCCC1 (single isomer, unassigned) [32.6, isomer 2] | 2300 nM
15 | CN(C(=O)c1ccc(F)c(Cl)c1)C(CN1CC(O)C1)C1CCCC1 (single isomer, unassigned) [32.7, isomer 1] | 75 nM
16 | CN(C(=O)c1ccc(F)c(Cl)c1)C(CN1CC(O)C1)C1CCCC1 (single isomer, unassigned) [32.7, isomer 2] | 160 nM
17 | CC[C@H](C)C(CN1CC(O)C1)N(C)C(=O)c1ccc(F)c(F)c1 (stereo in doubt) [Example 29.1, 3,4-Difluoro-N-((2S,3S)-1-(3-hydroxyazetidin-1-yl)-3-methylpentan-2-yl)-N-methylbenzamide] | 9300 nM

Same assay, conditions: printed as IC50 >67 μM in the 10-pt CR assay or IC50 >27 μM in the 7-pt CR assay; assay format per compound not stated; read-out: IC50

Row | Compound | IC50
18 | CC(C)[C@@H](CN1CC[C@H](O)C1)N(C)C(=O)c1cc(F)cc(F)c1F [2,3,5-Trifluoro-N-[(1S)-1-{[(3S)-3-hydroxypyrrolidin-1-yl]methyl}-2-methylpropyl]-N-methylbenzamide] | > 27000 nM
19 | CC(C)[C@@H](CN1CCCCC1)N(C)C(=O)c1cc(F)cc(F)c1F [2,3,5-Trifluoro-N-methyl-N-[(1S)-2-methyl-1-(piperidin-1-ylmethyl)propyl]benzamide] | > 27000 nM
20 | CC(C)[C@@H](CCN1CCCC1)N(C)C(=O)c1ccccc1Cl [2-Chloro-N-methyl-N-[(1R)-2-methyl-1-(2-pyrrolidin-1-ylethyl)propyl]benzamide] | > 27000 nM
21 | CC(C)[C@@H](CN1CC[C@H](O)C1)N(C)C(=O)c1cc(C(F)(F)F)ccc1F [2-Fluoro-N-[(1S)-1-{[(3S)-3-hydroxypyrrolidin-1-yl]methyl}-2-methylpropyl]-N-methyl-5-(trifluoromethyl)benzamide] | > 27000 nM
22 | CCC[C@@H](CN1C[C@@H](O)[C@@H]1C)N(C)C(=O)c1ccc(F)c(F)c1 [3,4-Difluoro-N-((S)-1-((2S,3R)-3-hydroxy-2-methylazetidin-1-yl)pentan-2-yl)-N-methylbenzamide] | > 27000 nM
23 | CC(C)[C@H](CN1CCCC1)N(C)C(=O)c1ccc(F)c(Cl)c1 [3-Chloro-4-fluoro-N-methyl-N-[(1R)-2-methyl-1-(pyrrolidin-1-ylmethyl)propyl]benzamide] | > 27000 nM
24 | CC(CN1CCCC1)N(C)C(=O)c1cccc(Cl)c1 (stereo not shown) [3-Chloro-N-methyl-N-(1-methyl-2-pyrrolidin-1-ylethyl)benzamide] | > 27000 nM
25 | CC(C)[C@@H](CN1CC[C@H](O)C1)N(C)C(=O)c1cccc(C#N)c1 [3-Cyano-N-[(1S)-1-{[(3S)-3-hydroxypyrrolidin-1-yl]methyl}-2-methylpropyl]-N-methylbenzamide] | > 27000 nM
26 | CC(C)[C@H](CN1CCCC1)N(C)C(=O)c1cccc(C#N)c1 [3-Cyano-N-methyl-N-[(1R)-2-methyl-1-(pyrrolidin-1-ylmethyl)propyl]benzamide] | > 27000 nM
27 | CC(C)[C@@H](CN1CCCCC1)N(C)C(=O)c1cccc(C#N)c1 [3-Cyano-N-methyl-N-[(1S)-2-methyl-1-(piperidin-1-ylmethyl)propyl]benzamide] | > 27000 nM
28 | C[C@@H](CN1CCCC1)N(C)C(=O)c1ccc(Br)cc1 [4-Bromo-N-methyl-N-[(1S)-1-methyl-2-pyrrolidin-1-ylethyl]benzamide] | > 27000 nM
